Columns and labels:
E. cloacae = assay: MIC, E. cloacae; assay type: cell-based; conditions: Enterobacter cloacae, read-out: MIC of MM
Experimental: The appropriate volume of an MM stock at 8 mM necessary to achieve a concentration ranging from 0.3125 to 40 μM was pipetted into a 2 mL microcentrifuge tube to which 1 mL of cell suspension prepared as previously described was added. Corresponding negative controls (DMSO only) were prepared in the same way. The mixture was gently mixed by pipetting and incubated in the dark at 30 or 37 ° C, depending on the strain, for 30 min with agitation (220 rpm). Afterward, MM- or DMSO-treated cells were dispensed in one well of a 24-well plate positioned in the center of the light beam (405 nm LED Light, Prizmatix, UHP—F-5-405) placed at the appropriate distance necessary to achieve the desired light intensity of 304 mW cm-2, 146 mW cm2 or 87 mW cm2, as measured with a handheld digital power meter console coupled to an S415C thermal power sensor head (Thorlabs, Newton, MA, USA). The temperature during irradiation was monitored using a thermocouple probe (Model SC-TT-K-30-36-PP; Omega Engineering, Inc., Stanford, CT, USA). Samples were agitated during irradiation. Dark controls were prepared as previously described except that no irradiation was provided. […]

[1] = system: C. albicans mitochondria and plasma membrane; assay: Colocalization analysis by confocal microscopy; assay type: cell-based, Candida albicans; conditions: no light
Experimental: Colocalization analysis of MMs was performed as previously described (Benhamou et al., 2018; Vida and Emr, 1995) with modifications. A single isolated colony was picked from 24-h SDAE plates, diluted in liquid YPD, and grown at 30 ° C for 24 h. Cells were then re-diluted in fresh YPD medium and grown statically in Ibidi u-dishes (Ibidi GmbH, Munich, Germany) for 24 h at 30 ° C The cells were washed, and then YPD medium containing 8 μM MM 1 and 10 nM MitoTracker™ Green (Thermo Fisher Scientific, MA, USA) was added. After a 30-min dark incubation at 30 ° C, the solution was replaced with fresh medium containing 40 nM FM™ 4-64 (Thermo Fisher Scientific, MA, USA). Cells were immediately imaged in a Nikon Al—RSI confocal system mounted on a Nikon Ti-E widefield fluorescence microscope (Nikon Corporation, NY, USA). Cells were imaged directly on the Ibidi imaging dish using a 60×water immersion objective (numerical aperture of 1.27, 0.17 mm working distance). Colocalization was calculated in the Fiji version of ImageJ using the Colocalization Threshold tool and the Coloc-2 plugin.

C. albicans = assay: Checkerboard interaction with conventional antifungals (FICI), C. albicans; assay type: cell-based, Candida albicans; conditions: for FICI: 405-nm light
Experimental: A modified checkerboard assay was used to study the interaction of visible-light-activated MMs with conventional antifungals in C. albicans. […] The type of interaction between MMs and conventional antifungals was assessed by calculating the fractional inhibitory concentration index (FICI), with a FICI of ≤0.5, 0.5<x≤4, or >4, denoting synergistic, additive, or antagonistic interactions, respectively (Odds, 2003).
The interaction of MMs with conventional antifungal agents in C. albicans was investigated by determining the MIC of different antifungals alone and after treatment with visible-light-activated MMs using a modified broth microdilution checkerboard assay (Cantón et al., 2005) in an 8×8-well configuration. […] The fractional inhibitory concentration index (FICI) was determined as the sum of the MIC of the MM and the antifungal drug when used in combination divided by their MIC when used alone. An FICI index of ≤0.5, 0.5<x≤4, or >4 indicates synergistic, additive, and antagonistic interactions, respectively (Odds, 2003).

T. rubrum = assay: Ex vivo onychomycosis porcine nail model; design: species or system Trichophyton rubrum on porcine nails; key to Summary of significance, fungal load: * p<0.05; ** p<0.01; *** p<0.001; **** p<0.0001; ns: non-significant; conditions: for Mean rank diff. of fungal load: T. rubrum nails
Experimental: For microconidia preparation, T. rubrum was inoculated on potato dextrose agar containing 0.025% Sabouraud dextrose broth (SDB) and 1.0% penicillin-streptomycin. After a 10-day incubation at 28 ° C, the plates were flooded with PBS, which was then aspirated and filtered through a sterilized cotton gauze to recover microconidia (Ma et al., 2022).
An ex vivo onychomycosis model was established as previously described (Quatrin et al., 2020) with modifications. Pig hooves with exposed toenails were processed into ~1 cm^2-sized individual toenail samples with a band saw, washed with 70% ethyl alcohol and sterilized water, and inoculated with a microconidia suspension of T. rubrum (~10^7 conidia mL^−1) for 3 h. Samples were placed in a Petri dish containing moist sterilized paper and incubated at 28 ° C for 10 days. Fungal growth was confirmed by sample resuspension in PBS and plating on PDA containing 0.025% SDB and 1% penicillin-streptomycin. Infected samples were then treated with (1) 1% DMSO plus light, (2) monotherapy with MM 1 alone (0.77% in DMSO) plus light, (3) monotherapy with conventional antifungal (three drops (Quatrin et al., 2020) of Ciclopirox Topical Suspension USP, 0.77% “Lotion”, Leading Pharma, LLC, NY, USA, or Ciclopirox Topical Solution, 8% “Lacquer”, Perrigo New York Inc., NY, USA), or (4) combination therapy with MM 1 plus light and conventional antifungal. Each treatment group consisted of three samples. After 30 min, samples in the irradiated treatment groups were transferred to 24-well plates (Corning-Costar Corp., Corning, NY, USA) and irradiated with 405-nm light (87.6 J cm^−2). Treatment was repeated every 24 h for 5 days. Afterward, the samples were transferred to tubes containing PBS plus 1% penicillin-streptomycin, vortexed, and sonicated (Quatrin et al., 2020). Triplicate aliquots of this suspension were inoculated on PDA plates containing 1% penicillin-streptomycin. After a 10-day incubation at 28 ° C, CFU numbers were determined. Untreated samples served as positive controls.

Compound	MIC (E. cloacae)	areal colocalization with FM 4-64 [1]	areal colocalization with MitoTracker Green [1]	type of interaction with conventional antifungals (C. albicans)	FICI (C. albicans; MM 1 + ciclopirox)	FICI (C. albicans; MM 1 + fluconazole)	FICI (C. albicans; MM 1 + voriconazole)	Summary of significance, fungal load (T. rubrum; 1% DMSO vs treatment)	Mean rank diff. of fungal load (T. rubrum; 1% DMSO vs treatment)	Summary of significance, fungal load (T. rubrum; CPX Lacquer vs treatment)	Mean rank diff. of fungal load (T. rubrum; CPX Lacquer vs treatment)	Summary of significance, fungal load (T. rubrum; CPX Lotion vs treatment)	Mean rank diff. of fungal load (T. rubrum; CPX Lotion vs treatment)	log reduction at 7700 µg/mL (T. rubrum; Trichophyton rubrum, topical, T. rubrum, 0.77% (w/v) MM 1 + 405-nm light, vs DMSO controls, read-out: reduction of fungal burden in porcine nails)
C[C@@H]1Cc2ccc3ccccc3c2/C1=C1\c2ccccc2Sc2cc(NCCN)ccc21 (racemic) [MM 6, N^1-(9-(2-methyl-2,3-dihydro-1H-cyclopenta[a]naphthalen-1-ylidene)-9H-thioxanthen-3-yl)ethane-1,2-diamine]	10 µM													
C[C@@H]1Cc2ccc3ccccc3c2/C1=C1\c2ccccc2Sc2cc(NCCN(C)C)ccc21 [MM 1, N^1N^1-dimethyl-N^2-(9-(2-methyl-2,3-dihydro-1H-cyclopenta[a]naphthalen-1-ylidene)-9H-thioxanthen-3-yl) ethane-1,2-diamine]		5.2%	52.5%	synergized with all antifungals tested	0.093	0.500	0.500	** (** p<0.01)	28.00	ns	14.33	ns	14.67	~2

— patent US20260355318A1, “MOLECULAR MACHINES FOR TREATMENT OF CANCER, FUNGAL INFECTIONS, OR BACTERIAL INFECTIONS” (priority 2022, published 2026)
